According to patent US20200264182A1, “METHOD FOR DETECTING PROSTATE CANCER” (J-OIL MILLS, INC., priority 2017, published 2020):
Where no end group is shown, it is not given here.

System: serum fucosylated PSA
Assay: Sandwich ELISA, anti-PSA antibody and biotin-labeled lectin
Format: binding, human
Settings: for Δ (=A − B): reaction value of Prostate cancer 4 minus Healthy 1; for lectin reaction value B of Healthy 1: serum of Healthy 1; for lectin reaction value A of Prostate cancer 4: serum of Prostate cancer 4, GS 6 (3 + 3)
Procedure, shortened: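 De-glycosylated anti-PSA antibody (5 μg/mL) captured PSA from 2-fold diluted serum, detected with biotin-PhoSL (0.1 μg/mL, 4° C, 30 min) in 0.1% BSA/diluted PBS+glycine-NaOH pH 9.6 or PBS pH 7.4, then HRP-streptavidin/TMB at Ab450-630. Values in U/mL from fucosylated PSA calibration, 10 ng/mL defined as 10 U/mL; AAL substituted for comparison.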

[1] = subject samples A, 7 healthy persons, pH 9.6
[2] = subject samples A, 9 patients, pH 9.6
[3] = subject samples B, n 9, high blood PSA but no cancer in biopsy, pH 9.6
[4] = subject samples B, n 11, pH 9.6

**Q.** Which results are given for “PhoSL: fucose α1→6 specific lectin that can be extracted from Pholiota squarrosa, SEQ ID No. 1 (APVPVTKLVCDGDTYKCTAYLDFGDGRWVAQWDTNVFHTG; not fully specified; ends and bridges not checked)”?
**A.** Δ (=A − B) (pH in lectin reaction 7.4): 72.6 U/mL; Δ (=A − B) (pH in lectin reaction 9.6): 126.9 U/mL; lectin reaction value B of Healthy 1 (pH in lectin reaction 7.4): 35.8 U/mL; lectin reaction value B of Healthy 1 (pH in lectin reaction 9.6): 51.9 U/mL; lectin reaction value of Healthy 2 (serum of Healthy 2, pH in lectin reaction 9.6): 55.9 U/mL; lectin reaction value of Healthy 3 (serum of Healthy 3, pH in lectin reaction 9.6): 63.9 U/mL; lectin reaction value of Healthy 4 (serum of Healthy 4, pH in lectin reaction 9.6): 74.9 U/mL; lectin reaction value of Healthy 5 (serum of Healthy 5, pH in lectin reaction 9.6): 55.8 U/mL; lectin reaction value of Healthy 6 (serum of Healthy 6, pH in lectin reaction 9.6): 39.7 U/mL; lectin reaction value of Healthy 7 (serum of Healthy 7, pH in lectin reaction 9.6): 59.0 U/mL; lectin reaction value of Prostate cancer 1 (serum of Prostate cancer 1, GS 4 (2 + 2), pH in lectin reaction 9.6): 115.8 U/mL; lectin reaction value of Prostate cancer 2 (serum of Prostate cancer 2, GS 5 (2 + 3), pH in lectin reaction 9.6): 116.7 U/mL; lectin reaction value of Prostate cancer 3 (serum of Prostate cancer 3, GS 6 (3 + 3), pH in lectin reaction 9.6): 104.5 U/mL; lectin reaction value A of Prostate cancer 4 (pH in lectin reaction 7.4): 108.4 U/mL; lectin reaction value A of Prostate cancer 4 (pH in lectin reaction 9.6): 178.8 U/mL; lectin reaction value of Prostate cancer 5 (serum of Prostate cancer 5, GS 7 (3 + 4), pH in lectin reaction 9.6): 115.8 U/mL; lectin reaction value of Prostate cancer 6 (serum of Prostate cancer 6, GS 7 (3 + 4), pH in lectin reaction 9.6): 167.5 U/mL; lectin reaction value of Prostate cancer 7 (serum of Prostate cancer 7, GS 8 (3 + 5), pH in lectin reaction 9.6): 125.6 U/mL; lectin reaction value of Prostate cancer 8 (serum of Prostate cancer 8, GS 8 (4 + 4), pH in lectin reaction 9.6): 129.8 U/mL; lectin reaction value of Prostate cancer 9 (serum of Prostate cancer 9, GS 8 (4 + 4), pH in lectin reaction 9.6): 251.4 U/mL; reaction value, Healthy person group, Average value [1]: 57.3 U/mL; reaction value, Healthy person group, Median value [1]: 55.9 U/mL; reaction value, Prostate cancer patient group, Average value [2]: 145.1 U/mL; reaction value, Prostate cancer patient group, Median value [2]: 125.6 U/mL; reaction value, GS6, Mean value (subject samples A, n 2, pH 9.6): 141.7 U/mL; reaction value, GS6, Median value (subject samples A, n 2, pH 9.6): 141.7 U/mL; reaction value, GS7, Mean value (subject samples A, n 2, pH 9.6): 141.7 U/mL; reaction value, GS7, Median value (subject samples A, n 2, pH 9.6): 141.7 U/mL; reaction value, Negative (GS5 or less), Mean value (subject samples A, n 2, pH 9.6): 116.3 U/mL; reaction value, Negative (GS5 or less), Median value (subject samples A, n 2, pH 9.6): 116.3 U/mL; reaction value, GS8 or more, Mean value (subject samples A, n 3, pH 9.6): 129.8 U/mL; reaction value, GS8 or more, Median value (subject samples A, n 3, pH 9.6): 168.9 U/mL; reaction value, GS8-9, Mean value (subject samples B, n 6, pH 9.6): 232.9 U/mL; reaction value, GS8-9, Median value (subject samples B, n 6, pH 9.6): 239.8 U/mL; reaction value, Negative, Mean value [3]: 203.8 U/mL; reaction value, Negative, Median value [3]: 178.0 U/mL; reaction value, GS6, Mean value (subject samples B, n 9, pH 9.6): 181.7 U/mL; reaction value, GS6, Median value (subject samples B, n 9, pH 9.6): 188.9 U/mL; reaction value, GS7, Mean value [4]: 119.5 U/mL; reaction value, GS7, Median value [4]: 210.6 U/mL
